According to patent US10392383B2, “3-(1H-benzo[d]imidazol-2-yl)-1H-pyrazolo[4,3-b]pyridines and therapeutic uses thereof” (Samumed, LLC, priority 2015, dated 2019):
pEC50: −log10 of the molar value.

Assays:
[1] = tested on: primary human mesenchymal stem cells (hMSCs); test: Induction of chondrogenesis in human mesenchymal stem cells (nodule staining with Rhodamine B / Nile Red); format: cell-based; details: for Emax: TGF-β3 (10 ng/mL) as positive control, read-out: Max. Activity as % TGF-β3 activity; for EC50: concentration required to induce 50% levels of chondrogenesis vs TGF-β3, read-out: Conc (nM) of 50% TGF-β3 activity
Description: Representative compounds were screened using primary human mesenchymal stem cells (hMSCs) to determine their ability to induce chondrogenesis (process by which cartilage is developed).
Human Mesenchymal Stem Cell Culture: Primary human mesenchymal stem cells (hMSCs) were purchased from Lonza (Walkersville, Md.) and expanded in Mesenchymal Stem Cell Growth Media (Lonza). Cells between passage 3 and 6 were used for the experiments.
Compound Screening: Each compound was dissolved in DMSO as a 10 mM stock and used to prepare compound source plates. For the 96 well assay, serial dilution (1:3, 6-point dose-response curves from 2700 nM to 10 nM) and compound transfer was performed using the ECHO 550 (Labcyte, Sunnyvale, Calif.) into 96-well clear bottom assay plates (Greiner Bio-One) with appropriate DMSO backfill for a final DMSO concentration of 0.03%. hMSCs were plated at 20,000 cells/well in 250 μL/well Incomplete Chondrogenic Induction Medium (Lonza; DMEM, dexamethasone, ascorbate, insulin-transferrin-selenium [ITS supplement], gentamycin-amphotericin [GA-1000], sodium pyruvate, proline and L-glutamine). TGF-β3 (10 ng/mL) was used as a positive control for differentiation while negative control wells were treated with 75 nL DMSO for normalization and calculating EC50 values. For the 384 well assay, serial dilution (1:3, 8-point dose-response curves from 5000 nM to 2.2 nM) and compound transfer was performed using the ECHO 550 (Labcyte, Sunnyvale, Calif.) into 384-well clear bottom assay plates (Greiner Bio-One) with appropriate DMSO backfill for a final DMSO concentration of 0.03%. hMSCs were plated at 8,000 cells/well in 80 μL/well Incomplete Chondrogenic Induction Medium (Lonza; DMEM, dexamethasone, ascorbate, insulin-transferrin-selenium [ITS supplement], gentamycin-amphotericin [GA-1000], sodium pyruvate, proline and L-glutamine). TGF-β3 (10 ng/mL) was used as a positive control for differentiation while negative control wells were treated with 25 nL DMSO for normalization and calculating EC50 values. Cells were incubated at 37° C. and 5% CO2 for 6 days. To image chondrogenic nodules, the cells were fixed using 4% formaldehyde (Electron Microscopy Sciences), and stained with 2 μg/mL Rhodamine B (Sigma-Aldrich) and 20 μM Nile Red (Sigma-Aldrich) [Johnson K., et. al, A Stem Cell-Based Approach to Cartilage Repair, Science, (2012), 336(6082), 717-721]. The nodules imaged (25 images per well for 96 well plates and 9 images per well for 384 well plates at 10× magnification) by excitation at 531 nm and emission at 625 nm and quantified using the CellInsight CX5 (Thermo Scientific). Area of nodules in each well was normalized to the average of 3 DMSO treated wells on the same plate using Excel (Microsoft Inc.). The normalized averages (fold change over DMSO) of 2 or 3 replicate wells for each compound concentration were calculated. Due to solubility limitations of some of the compounds, curve fitting was incomplete leading to inaccurate EC50 determinations.
Using TGF-β3 as a positive control, the concentration of representative compounds required to induce 50% levels of chondrogenesis is reported. In addition, the maximum activity of each compound and the respective dose that each compound reached maximum chondrogenesis activity is reported.

[2] = tested on: primary human fibroblasts derived from IPF patients (LL29 cells) treated with TGF-β1; test: Inhibition of the fibrotic process: αSMA staining in TGF-β1-treated LL29 fibroblasts; format: cell-based; details: Fibroblast; for inhibition at 10 µM: LL29 fibroblasts treated with TGF-β1, Table 4, read-out: percent inhibition at 10 μM (given in parentheses for EC50 >10 μM); for pEC50: 96 h, LL29 fibroblasts treated with TGF-β1 (20 ng/mL), 4 days, Table 4
Source text: Representative compounds were screened using primary human fibroblasts (derived from IPF patients) treated with TGF-β1 to determine their ability to inhibit the fibrotic process.
Human Fibroblast Cell Culture: Primary human fibroblasts derived from IPF patients (LL29 cells) [^1Xiaoqiu Liu, et. al., “Fibrotic Lung Fibroblasts Show Blunted Inhibition by cAMP Due to Deficient cAMP Response Element-Binding Protein Phosphorylation”, Journal of Pharmacology and Experimental Therapeutics (2005), 315(2), 678-687; ^2Watts, K. L., et. al., “RhoA signaling modulates cyclin D1 expression in human lung fibroblasts; implications for idiopathic pulmonary fibrosis”, Respiratory Research (2006), 7(1), 88] were obtained from American Type Culture Collection (ATCC) and expanded in F12 medium supplemented with 15% Fetal Bovine Serum and Penicillin/Streptomycin.
Compound Screening: Each compound was dissolved in DMSO as a 10 mM stock and used to prepare compound source plates. Serial dilution (1:2, 11-point dose-response curves from 10 μM to […]) and compound transfer was performed using the ECHO 550 (Labcyte, Sunnyvale, Calif.) into 384-well clear bottom assay plates (Greiner Bio-One) with appropriate DMSO backfill for a final DMSO concentration of 0.1%. LL29 cells are plated at 1,500 cells/well in 80 μL/well F12 medium supplemented with 1% Fetal Bovine Serum. One hour after addition of the cells, TGF-β1 (Peprotech; 20 ng/mL) was added to the plates to induce fibrosis (ref. 1 and 2 above). Wells treated with TGF-β1 and containing DMSO were used as controls. Cells were incubated at 37° C. and 5% CO2 for 4 days. Following incubation for 4 days, SYTOX green nucleic acid stain (Life Technologies [Thermo Fisher Scientific]) was added to the wells at a final concentration of 1 μM and incubated at room temperature for 30 min. Cells were then fixed using 4% formaldehyde (Electron Microscopy Sciences), washed 3 times with PBS followed by blocking and permeabilization using 3% Bovine Serum Albumin (BSA; Sigma) and 0.3% Triton X-100 (Sigma) in PBS. Cells were then stained with antibody specific to α-smooth muscle actin (αSMA; Abcam) (ref. 1 and 2 above) in 3% Bovine Serum Albumin (BSA; Sigma) and 0.3% Triton X-100 (Sigma) in PBS, and incubated overnight at 4° C. Cells were then washed 3 times with PBS, followed by incubation with Alexa Flor-647 conjugated secondary antibody (Life Technologies [Thermo Fisher Scientific]) and DAPI at room temperature for 1 hour. Cells were then washed 3 times with PBS and plates were sealed for imaging. αSMA staining was imaged by excitation at 630 nm and emission at 665 nm and quantified using the Compartmental Analysis program on the CellInsight CX5 (Thermo Scientific). Dead or apoptotic cells were excluded from analysis based on positive SYTOX green staining. % of total cells positive for αSMA were counted in each well and normalized to the average of 11 wells treated with TGF-β1 on the same plate using Dotmatics' Studies Software. The normalized averages (fold change over untreated) of 3 replicate wells for each compound concentration were used to create dose-responses curves and EC50 values were calculated using non-linear regression curve fit in the Dotmatics' Studies Software. For EC50 of >10 μM, the percent inhibition at 10 μM is provided.

Row | SMILES | Emax [1] | EC50 [1] | inhibition at 10 µM [2] | pEC50 [2]
1 | CC(C)(C)C(=O)Nc1cncc(-c2ccc3[nH]nc(-c4nc5c(-c6ccc(F)cc6)cccc5[nH]4)c3n2)c1 [Compound 36, N-(5-(3-(4-(4-Fluorophenyl)-1H-benzo[d]imidazol-2-yl)-1H-pyrazolo[4,3-b]pyridin-5-yl)pyridin-3-yl)pivalamide] | 86% | 30 nM | 33.6% | < 5.00
2 | Fc1ccc(-c2cccc3[nH]c(-c4n[nH]c5ccc(-c6cncc(CN7CCCC7)c6)nc45)nc23)cc1 [Compound 42, 3-(4-(4-Fluorophenyl)-1H-benzo[d]imidazol-2-yl)-5-(5-(pyrrolidin-1-ylmethyl)pyridin-3-yl)-1H-pyrazolo[4,3-b]pyridine] | 23% |  |  | 5.45
3 | O=C(Nc1cncc(-c2ccc3[nH]nc(-c4nc5c(-c6ccc(F)cc6)cccc5[nH]4)c3n2)c1)C1CCC1 [Compound 49, N-(5-(3-(4-(4-Fluorophenyl)-1H-benzo[d]imidazol-2-yl)-1H-pyrazolo[4,3-b]pyridin-5-yl)pyridin-3-yl)cyclobutanecarboxamide] | 69% | 30 nM | 0% | < 5.00
4 | Fc1ccc(-c2cccc3[nH]c(-c4n[nH]c5ccc(-c6cncnc6)nc45)nc23)cc1 [Compound 55, 3-(4-(4-Fluorophenyl)-1H-benzo[d]imidazol-2-yl)-5-(pyrimidin-5-yl)-1H-pyrazolo[4,3-b]pyridine] | 96% | 10 nM |  | 5.51
5 | Nc1cncc(-c2ccc3[nH]nc(-c4nc5c(-c6ccccc6F)cccc5[nH]4)c3n2)c1 [Compound 59, 5-(3-(4-(2-Fluorophenyl)-1H-benzo[d]imidazol-2-yl)-1H-pyrazolo[4,3-b]pyridin-5-yl)pyridin-3-amine] | 82% | 30 nM |  | 5.86
6 | c1cncc(-c2ccc3[nH]nc(-c4nc5c(-c6cccnc6)cccc5[nH]4)c3n2)c1 [Compound 88, 5-(Pyridin-3-yl)-3-(4-(pyridin-3-yl)-1H-benzo[d]imidazol-2-yl)-1H-pyrazolo [4,3-b]pyridine] | 58% | 30 nM | 0% | < 5.00
7 | CC(C)C(=O)Nc1cncc(-c2ccc3[nH]nc(-c4nc5c(-c6cccnc6)cccc5[nH]4)c3n2)c1 [Compound 93, N-(5-(3-(4-(Pyridin-3-yl)-1H-benzo[d]imidazol-2-yl)-1H-pyrazolo[4,3-b]pyridin-5-yl)pyridin-3-yl)isobutyramide] | 36% |  | 0% | < 5.00
8 | CC(C)Nc1cncc(-c2ccc3[nH]nc(-c4nc5c(-c6cccnc6)cccc5[nH]4)c3n2)c1 [Compound 96, N-Isopropyl-5-(3-(4-(pyridin-3-yl)-1H-benzo[d]imidazol-2-yl)-1H-pyrazolo [4,3-b]pyridin-5-yl)pyridin-3-amine] | 24% |  |  | 5.92
9 | Cc1ccncc1-c1ccc2[nH]nc(-c3nc4c(-c5ccncc5)cccc4[nH]3)c2n1 [Compound 117, 5-(4-Methylpyridin-3-yl)-3-(4-(pyridin-4-yl)-1H-benzo[d]imidazol-2-yl)-1H-pyrazolo[4,3-b]pyridine] | 45% |  | 0% | < 5.00
10 | O=C(Cc1ccccc1)Nc1cncc(-c2ccc3[nH]nc(-c4nc5c(-c6ccncc6)cccc5[nH]4)c3n2)c1 [Compound 122, 2-Phenyl-N-(5-(3-(4-(pyridin-4-yl)-1H-benzo[d]imidazol-2-yl)-1H-pyrazolo [4,3-b]pyridin-5-yl)pyridin-3-yl)acetamide] | 75% | 300 nM |  | 5.30
11 | c1cc(-c2ccc3c(c2)OCO3)c2nc(-c3n[nH]c4ccc(C5CCNCC5)nc34)[nH]c2c1 [Compound 1108, 3-(4-(Benzo[d][1,3]dioxol-5-yl)-1H-benzo[d]imidazol-2-yl)-5-(piperidin-4-yl)-1H-pyrazolo[4,3-b]pyridine] |  |  | 14.1% | < 5.00
12 | C1=C(c2ccc3[nH]nc(-c4nc5c(-c6ccc7c(c6)OCO7)cccc5[nH]4)c3n2)CCNC1 [Compound 1109, 3-(4-(Benzo[d][1,3]dioxol-5-yl)-1H-benzo[d]imidazol-2-yl)-5-(1,2,3,6-tetrahydropyridin-4-yl)-1H-pyrazolo[4,3-b]pyridine] |  |  |  | 5.80
13 | Cn1cc(-c2ccc3[nH]nc(-c4nc5c(-c6ccc(F)cc6)cccc5[nH]4)c3n2)c(CO)n1 [Compound 1129, (4-(3-(4-(4-Fluorophenyl)-1H-benzo[d]imidazol-2-yl)-1H-pyrazolo[4,3-b]pyridin-5-yl)-1-methyl-1H-pyrazol-3-yl)methanol] |  |  |  | 5.92
14 | Cn1cc(-c2ccc3[nH]nc(-c4nc5c(N6CCCCC6)cccc5[nH]4)c3n2)c(CO)n1 [Compound 1134, (1-Methyl-4-(3-(4-(piperidin-1-yl)-1H-benzo[d]imidazol-2-yl)-1H-pyrazolo [4,3-b]pyridin-5-yl)-1H-pyrazol-3-yl)methanol] |  |  | 0% | < 5.00
15 | Cn1cc(-c2ccc3[nH]nc(-c4nc5c(-c6ccc7c(c6)OCO7)cccc5[nH]4)c3n2)c(CO)n1 [Compound 1152, (4-(3-(4-(Benzo[d][1,3]dioxol-5-yl)-1H-benzo[d]imidazol-2-yl)-1H-pyrazolo[4,3-b]pyridin-5-yl)-1-methyl-1H-pyrazol-3-yl)methanol] |  |  | 0% | < 5.00
